The structures appear in SMILES notation. Some results are limits rather than exact numbers.

The target in experiment [1] is T1, PI3Kβ (Homo sapiens, UniProt P42338).
T1 construct: purchased Millipore Corporation 14-603-K
The experiment in a line: PI3 Kinase HTRF assay, PI3Kβ. The class given is biochemical. To be noted: 10 μM PIP2, 10 μM ATP; read-out: PI3K β IC50. A digest of the protocol: (§1)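 Compounds were tested at 12 concentrations from 20 μM down to 0.1 nM against purified recombinant PI3K, which phosphorylated PIP2 (10 μM) in the presence of ATP (10 μM). Formed PIP3 was quantified by time-resolved FRET using GRP1 PH domain binding; emission ratios gave percent inhibition and IC50.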

Experiment [2] addresses T2, PI3Kδ (Homo sapiens, UniProt O00329).
T2 construct: purchased Millipore Corporation 14-604-K
Put plainly: PI3 Kinase HTRF assay, PI3Kδ. To be noted: 10 μM PIP2, 10 μM ATP; read-out: PI3K δ IC50. The class given is biochemical. The procedure, abridged: as §1
On the technique in general: TR-FRET usually uses a lanthanide donor and a delayed reading to cut background.

The target of experiment [3] is T3, PI3Kγ (Homo sapiens, UniProt P48736).
T3 construct: purchased Millipore Corporation 14-558-K
T3 sequence (P48736 whole entry): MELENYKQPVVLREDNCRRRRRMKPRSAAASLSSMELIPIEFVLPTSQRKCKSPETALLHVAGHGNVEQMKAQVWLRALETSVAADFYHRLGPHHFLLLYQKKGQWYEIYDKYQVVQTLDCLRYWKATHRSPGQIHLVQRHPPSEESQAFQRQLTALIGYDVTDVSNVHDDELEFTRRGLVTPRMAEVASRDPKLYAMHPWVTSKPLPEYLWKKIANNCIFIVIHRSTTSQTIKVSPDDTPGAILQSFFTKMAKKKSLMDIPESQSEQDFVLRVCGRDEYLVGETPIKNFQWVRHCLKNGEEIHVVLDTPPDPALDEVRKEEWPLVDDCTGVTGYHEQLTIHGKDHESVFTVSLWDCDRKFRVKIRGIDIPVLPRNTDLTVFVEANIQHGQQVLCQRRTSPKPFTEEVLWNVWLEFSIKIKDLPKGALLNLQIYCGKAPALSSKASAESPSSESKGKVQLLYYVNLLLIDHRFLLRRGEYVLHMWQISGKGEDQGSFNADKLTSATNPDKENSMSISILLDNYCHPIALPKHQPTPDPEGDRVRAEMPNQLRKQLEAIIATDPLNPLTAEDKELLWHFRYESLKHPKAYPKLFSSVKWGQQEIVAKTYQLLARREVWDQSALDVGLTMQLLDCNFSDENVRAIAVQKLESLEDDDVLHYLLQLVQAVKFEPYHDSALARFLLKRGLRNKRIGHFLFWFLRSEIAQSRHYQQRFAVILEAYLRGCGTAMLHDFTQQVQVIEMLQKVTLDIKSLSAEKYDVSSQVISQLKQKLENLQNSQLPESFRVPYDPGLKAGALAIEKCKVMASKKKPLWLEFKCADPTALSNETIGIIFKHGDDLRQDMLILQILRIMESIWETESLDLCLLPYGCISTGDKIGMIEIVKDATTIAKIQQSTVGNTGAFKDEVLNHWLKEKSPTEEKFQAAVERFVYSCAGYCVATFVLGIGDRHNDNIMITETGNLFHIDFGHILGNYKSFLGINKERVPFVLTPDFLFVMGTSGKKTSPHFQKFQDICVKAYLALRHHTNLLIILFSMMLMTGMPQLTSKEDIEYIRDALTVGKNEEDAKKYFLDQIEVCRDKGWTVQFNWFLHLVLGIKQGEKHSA
The experiment in a line: PI3 Kinase HTRF assay, PI3Kγ. The class given is biochemical. To be noted: 10 μM PIP2, 10 μM ATP; read-out: PI3K γ IC50. The procedure, abridged: as §1

Experiment [4] deals with Balb/c splenic B cells. The experiment in a line: B cell activation and proliferation assay (Alamar Blue). The class given is cell-based. To be noted: Mus musculus, read-out: B cell prolif. IC50. How it is done:
The ability of one or more subject compounds to inhibit B cell activation and proliferation is determined according to standard procedures known in the art. For example, an in vitro cellular proliferation assay is established that measures the metabolic activity of live cells. The assay is performed in a 96 well microtiter plate using Alamar Blue reduction. Balb/c splenic B cells are purified over a Ficoll-Paque™ PLUS gradient followed by magnetic cell separation using a MACS B cell Isolation Kit (Miletenyi). Cells are plated in 90 ul at 50,000 cells/well in B Cell Media (RPMI+10% FBS+Penn/Strep+50 uM bME+5 mM HEPES). A compound disclosed herein is diluted in B Cell Media and added in a 10 μl volume. Plates are incubated for 30 min at 37 C and 5% CO2 (0.2% DMSO final concentration). A 50 μl B cell stimulation cocktail is then added containing either 10 ug/ml LPS or 5 ug/ml F(ab′)2 Donkey anti-mouse IgM plus 2 ng/ml recombinant mouse IL4 in B Cell Media. Plates are incubated for 72 hours at 37° C. and 5% CO2. A volume of 15 μl of Alamar Blue reagent is added to each well and plates are incubated for 5 hours at 37 C and 5% CO2. Alamar Blue fluoresce is read at 560Ex/590Em, and IC50 or EC50 values are calculated using GraphPad Prism 5.

In experiment [5] the target is T4, PI3Kα (Homo sapiens, UniProt P42336).
T4 construct: purchased Millipore Corporation 14-602-K
T4 sequence (P42336 whole entry): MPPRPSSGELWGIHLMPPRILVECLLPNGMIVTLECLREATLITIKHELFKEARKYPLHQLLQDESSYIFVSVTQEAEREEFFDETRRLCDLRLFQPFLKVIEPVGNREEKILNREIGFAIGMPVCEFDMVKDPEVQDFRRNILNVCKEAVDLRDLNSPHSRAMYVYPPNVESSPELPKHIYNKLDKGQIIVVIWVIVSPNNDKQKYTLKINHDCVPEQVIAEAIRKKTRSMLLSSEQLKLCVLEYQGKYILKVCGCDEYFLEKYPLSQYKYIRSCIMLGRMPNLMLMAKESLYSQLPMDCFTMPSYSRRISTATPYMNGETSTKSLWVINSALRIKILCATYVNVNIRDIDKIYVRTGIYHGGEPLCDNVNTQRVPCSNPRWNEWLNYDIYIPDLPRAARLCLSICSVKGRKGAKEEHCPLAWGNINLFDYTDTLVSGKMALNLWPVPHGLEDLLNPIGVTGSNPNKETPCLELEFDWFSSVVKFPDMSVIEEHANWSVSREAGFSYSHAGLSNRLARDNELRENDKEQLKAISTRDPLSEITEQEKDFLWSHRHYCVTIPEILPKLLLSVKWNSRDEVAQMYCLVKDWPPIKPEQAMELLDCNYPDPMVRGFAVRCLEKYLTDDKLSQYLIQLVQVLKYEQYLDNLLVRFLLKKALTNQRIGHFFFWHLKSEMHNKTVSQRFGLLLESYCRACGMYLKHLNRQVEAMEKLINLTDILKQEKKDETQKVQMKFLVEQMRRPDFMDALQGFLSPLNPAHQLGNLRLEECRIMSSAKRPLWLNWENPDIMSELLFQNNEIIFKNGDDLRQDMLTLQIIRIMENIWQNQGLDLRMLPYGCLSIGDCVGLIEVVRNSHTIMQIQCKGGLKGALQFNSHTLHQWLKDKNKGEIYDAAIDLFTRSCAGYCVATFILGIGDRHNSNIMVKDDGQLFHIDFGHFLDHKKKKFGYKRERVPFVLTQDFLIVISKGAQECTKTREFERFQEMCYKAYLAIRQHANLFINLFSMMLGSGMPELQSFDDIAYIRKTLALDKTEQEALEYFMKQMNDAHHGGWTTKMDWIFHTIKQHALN
T4 sequence (P27986 whole entry partner): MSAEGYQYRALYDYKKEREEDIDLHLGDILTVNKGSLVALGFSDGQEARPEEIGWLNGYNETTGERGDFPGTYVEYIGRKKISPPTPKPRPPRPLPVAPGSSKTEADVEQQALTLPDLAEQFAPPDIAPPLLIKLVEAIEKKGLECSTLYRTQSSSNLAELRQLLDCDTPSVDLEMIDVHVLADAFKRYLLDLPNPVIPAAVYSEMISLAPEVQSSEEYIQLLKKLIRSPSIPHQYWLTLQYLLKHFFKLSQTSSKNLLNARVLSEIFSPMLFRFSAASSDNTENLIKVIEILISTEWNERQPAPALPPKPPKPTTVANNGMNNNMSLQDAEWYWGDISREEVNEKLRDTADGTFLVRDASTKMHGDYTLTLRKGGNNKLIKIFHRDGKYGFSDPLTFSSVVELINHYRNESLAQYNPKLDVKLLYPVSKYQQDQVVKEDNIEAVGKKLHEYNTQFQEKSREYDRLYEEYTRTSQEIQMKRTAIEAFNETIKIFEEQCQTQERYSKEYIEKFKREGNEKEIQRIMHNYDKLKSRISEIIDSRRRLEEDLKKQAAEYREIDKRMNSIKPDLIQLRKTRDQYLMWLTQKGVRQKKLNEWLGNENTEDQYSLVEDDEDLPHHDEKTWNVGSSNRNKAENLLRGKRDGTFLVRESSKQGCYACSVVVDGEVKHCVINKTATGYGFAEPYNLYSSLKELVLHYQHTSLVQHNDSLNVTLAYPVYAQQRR
Put plainly: PI3 Kinase HTRF assay, PI3Kα. To be noted: 10 μM PIP2, 10 μM ATP; read-out: PI3K α IC50. The class given is biochemical. A digest of the protocol: as §1

T1 sequence (P42338 whole entry): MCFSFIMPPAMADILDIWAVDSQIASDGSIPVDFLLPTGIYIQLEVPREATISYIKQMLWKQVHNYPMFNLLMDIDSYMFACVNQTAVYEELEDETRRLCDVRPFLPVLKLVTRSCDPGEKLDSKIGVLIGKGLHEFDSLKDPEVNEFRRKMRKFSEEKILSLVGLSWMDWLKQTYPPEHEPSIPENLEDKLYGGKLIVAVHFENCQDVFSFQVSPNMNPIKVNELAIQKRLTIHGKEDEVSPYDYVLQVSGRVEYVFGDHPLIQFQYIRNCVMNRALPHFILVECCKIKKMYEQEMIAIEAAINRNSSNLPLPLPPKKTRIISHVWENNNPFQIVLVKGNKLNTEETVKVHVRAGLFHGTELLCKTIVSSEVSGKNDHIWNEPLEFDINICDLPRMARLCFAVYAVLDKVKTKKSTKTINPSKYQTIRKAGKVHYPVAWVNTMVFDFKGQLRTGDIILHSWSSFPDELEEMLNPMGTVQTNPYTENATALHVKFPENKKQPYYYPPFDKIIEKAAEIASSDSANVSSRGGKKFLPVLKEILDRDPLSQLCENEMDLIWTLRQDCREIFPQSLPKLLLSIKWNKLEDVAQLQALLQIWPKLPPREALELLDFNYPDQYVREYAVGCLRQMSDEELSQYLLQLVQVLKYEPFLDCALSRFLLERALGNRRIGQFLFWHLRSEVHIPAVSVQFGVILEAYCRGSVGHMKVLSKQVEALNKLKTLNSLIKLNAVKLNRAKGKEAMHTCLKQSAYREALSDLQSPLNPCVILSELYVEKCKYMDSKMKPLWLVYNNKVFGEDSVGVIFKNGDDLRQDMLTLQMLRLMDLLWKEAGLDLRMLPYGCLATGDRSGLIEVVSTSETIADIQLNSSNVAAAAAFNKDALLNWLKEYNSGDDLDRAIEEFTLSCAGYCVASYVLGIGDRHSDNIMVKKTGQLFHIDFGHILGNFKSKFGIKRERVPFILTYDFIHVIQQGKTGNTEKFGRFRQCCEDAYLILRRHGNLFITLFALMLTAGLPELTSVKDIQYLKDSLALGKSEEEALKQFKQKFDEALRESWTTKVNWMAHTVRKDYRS
T1 sequence (P27986 whole entry partner): as the sequence (P27986 whole entry partner) above
T2 sequence (O00329 whole entry): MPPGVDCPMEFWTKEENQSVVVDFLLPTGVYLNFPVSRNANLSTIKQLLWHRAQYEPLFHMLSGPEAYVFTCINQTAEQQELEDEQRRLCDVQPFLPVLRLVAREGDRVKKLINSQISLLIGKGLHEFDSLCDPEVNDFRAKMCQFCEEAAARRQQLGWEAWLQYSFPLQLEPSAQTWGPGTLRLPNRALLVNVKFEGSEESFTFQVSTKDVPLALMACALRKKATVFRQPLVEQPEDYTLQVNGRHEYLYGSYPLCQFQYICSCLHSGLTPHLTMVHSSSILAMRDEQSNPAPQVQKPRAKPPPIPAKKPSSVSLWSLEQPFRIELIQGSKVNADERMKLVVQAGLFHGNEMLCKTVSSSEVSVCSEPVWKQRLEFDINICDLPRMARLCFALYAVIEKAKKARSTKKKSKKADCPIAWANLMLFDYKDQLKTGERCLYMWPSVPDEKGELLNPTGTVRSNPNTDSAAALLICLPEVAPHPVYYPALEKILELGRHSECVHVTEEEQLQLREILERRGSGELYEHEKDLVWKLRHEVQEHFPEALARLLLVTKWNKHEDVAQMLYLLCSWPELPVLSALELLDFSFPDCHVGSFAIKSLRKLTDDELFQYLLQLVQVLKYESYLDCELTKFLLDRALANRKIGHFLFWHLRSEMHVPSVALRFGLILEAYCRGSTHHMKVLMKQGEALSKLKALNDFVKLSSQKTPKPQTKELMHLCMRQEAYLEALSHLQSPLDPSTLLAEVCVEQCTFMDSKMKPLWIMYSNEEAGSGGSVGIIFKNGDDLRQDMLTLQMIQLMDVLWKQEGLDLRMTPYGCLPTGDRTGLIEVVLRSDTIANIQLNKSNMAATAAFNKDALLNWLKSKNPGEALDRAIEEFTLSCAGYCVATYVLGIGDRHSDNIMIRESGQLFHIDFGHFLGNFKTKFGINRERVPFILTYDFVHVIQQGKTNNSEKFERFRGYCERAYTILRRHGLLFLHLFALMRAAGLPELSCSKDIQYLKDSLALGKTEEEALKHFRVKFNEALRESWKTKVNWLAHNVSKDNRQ
T2 sequence (P27986 whole entry partner): as the sequence (P27986 whole entry partner) above

Turning to `CC(C)N1CCC(Oc2nc([C@H](C)Nc3ncnc4[nH]cnc34)cc3cccc(Cl)c23)CC1` [Compound 47, (S)—N-(1-(8-chloro-1-(1-isopropylpiperidin-4-yloxy)isoquinolin-3-yl)ethyl)-9H-purin-6-amine], the IC50 – broadly, the concentration that gives 50% inhibition – in experiment [1] was under 10000 nM; in experiment [2] it was under 100 nM; in experiment [3], over 10000 nM; in experiment [4] it was under 100 nM; in experiment [5], under 10000 nM.

In the case of `C[C@H](Nc1ncnc2[nH]cnc12)c1cc2c(F)cccc2c(CCN2CCOCC2)n1` [Compound 53], the IC50 was over 10000 nM in experiment [1]; under 100 nM in experiment [2]; over 10000 nM in experiment [3]; under 100 nM in experiment [4]; over 10000 nM in experiment [5].

Turning to `Cc1cccc2cc([C@H](C)Nc3ncnc4[nH]cnc34)nc(OC3CCN(C(C)C)CC3)c12` [Compound 57], the IC50 in experiment [1] was under 10000 nM; in experiment [2] it was under 100 nM; in experiment [3], over 10000 nM; in experiment [4] it was under 1000 nM; in experiment [5] it was over 10000 nM.

`C[C@H](Nc1ncnc2[nH]cnc12)c1cc2c(F)ccc(Cl)c2c(CCN2CCOCC2)n1` [Compound 68]: the IC50 is over 10000 nM in experiment [1]; under 100 nM in experiment [2]; under 10000 nM in experiment [3]; under 100 nM in experiment [4]; under 10000 nM in experiment [5].

Take `C[C@H](Nc1ccnc2ccnn12)c1cc2cccc(Cl)c2c(CCN2CCOCC2)n1` [Compound 73]: the IC50 in experiment [1] is under 1000 nM; in experiment [2], under 100 nM; in experiment [3] it was under 10000 nM; in experiment [4], under 100 nM; in experiment [5], under 10000 nM.

Turning to `C[C@H](Nc1ncnc2ccccc12)c1cc2cccc(Cl)c2c(CCN2CCOCC2)n1` [Compound 74], the IC50 in experiment [1] was under 10000 nM; in experiment [2], under 100 nM; in experiment [3] it was under 10000 nM; in experiment [4] it was under 1000 nM; in experiment [5], under 10000 nM.

Turning to `C[C@H](Nc1ncnc2cccnc12)c1cc2cccc(Cl)c2c(CCN2CCOCC2)n1` [Compound 75], the IC50 in experiment [1] was under 1000 nM; in experiment [2], under 100 nM; in experiment [3] it was under 1000 nM; in experiment [4] it was under 100 nM; in experiment [5] it was under 1000 nM.

In the case of `C[C@H](Nc1ccnn2ccnc12)c1cc2ccccc2c(CCN2CCOCC2)n1` [Compound 77, (S)—N-(1-(1-(2-morpholinoethyl)isoquinolin-3-yl)ethyl)imidazo[1,2-b]pyridazin-8-amine], the IC50 in experiment [1] was over 10000 nM; in experiment [2] it was under 100 nM; in experiment [3], over 10000 nM; in experiment [4], under 100 nM; in experiment [5], over 10000 nM.

On to `C[C@H](Nc1ncnc2[nH]cnc12)c1nc(CCN2CCOCC2)c2c(Cl)cccc2c1F` [Compound 85, (S)—N-(1-(8-chloro-4-fluoro-1-(2-morpholinoethyl)isoquinolin-3-yl)ethyl)-9H-purin-6-amine], for which the IC50 is over 10000 nM in experiment [1]; under 1000 nM in experiment [2]; over 10000 nM in experiment [3]; under 1000 nM in experiment [4]; over 10000 nM in experiment [5].

`CC(C)N1CCN(c2nc([C@H](C)Nc3ncnc4[nH]cnc34)cc3cccc(Cl)c23)CC1` [Compound 90]: the IC50 in experiment [1] is under 10000 nM; in experiment [2], under 100 nM; in experiment [3], under 10000 nM; in experiment [4], under 100 nM; in experiment [5], under 10000 nM.

As for `CCN1CCN(c2nc([C@H](C)Nc3ncnc4[nH]cnc34)cc3cccc(Cl)c23)CC1` [Compound 91], the IC50 in experiment [1] is under 10000 nM; in experiment [2], under 100 nM; in experiment [3] it was under 10000 nM; in experiment [4], under 100 nM; in experiment [5] it was under 10000 nM.

With `Cc1cccc2cc([C@H](C)Nc3ncnc4[nH]cnc34)nc(OCC3CCN(C)CC3)c12` [Compound 92], the IC50 in experiment [1] was under 10000 nM; in experiment [2], under 100 nM; in experiment [3], under 10000 nM; in experiment [4] it was under 100 nM; in experiment [5], under 10000 nM.

With `C[C@H](Nc1ncnc2[nH]cnc12)c1cc2cccc(Cl)c2c(SCCN2CCOCC2)n1` [Compound 93, (S)—N-(1-(8-chloro-1-(2-morpholinoethylthio)isoquinolin-3-yl)ethyl)-9H-purin-6-amine], the IC50 in experiment [1] is under 1000 nM; in experiment [2], under 100 nM; in experiment [3], under 1000 nM; in experiment [4] it was under 100 nM; in experiment [5] it was under 10000 nM.

`C[C@H](Nc1ncnc2scnc12)c1cc2cccc(Cl)c2c(N2CCN(C)CC2)n1` [Compound 98]: the IC50 in experiment [1] is under 1000 nM; in experiment [2] it was under 100 nM; in experiment [3], under 10000 nM; in experiment [4], under 100 nM; in experiment [5], under 10000 nM.

`CC(C)N1CCC(Oc2nc([C@H](C)Nc3ccnc4ccnn34)cc3cccc(Cl)c23)CC1` [Compound 107]: the IC50 was under 10000 nM in experiment [1]; under 100 nM in experiment [2]; under 10000 nM in experiment [3]; under 100 nM in experiment [4]; under 10000 nM in experiment [5].

For `CC(C)N1CCC(Oc2nc([C@H](C)Nc3ncnc4cccnc34)cc3cccc(Cl)c23)CC1` [Compound 108], the IC50 in experiment [1] is over 10000 nM; in experiment [2] it was under 100 nM; in experiment [3], under 100 nM; in experiment [4], under 1000 nM; in experiment [5], under 10000 nM.

For the compound `C[C@H](Nc1ncnc2scnc12)c1cc2cccc(Cl)c2c(C(=O)N2CCOCC2)n1` [Compound 116], the IC50 in experiment [1] was under 1000 nM; in experiment [2], under 100 nM; in experiment [3], under 1000 nM; in experiment [4], under 100 nM; in experiment [5], under 10000 nM.

Turning to `C[C@H](Nc1ncnc2ccccc12)c1cc2cccc(Cl)c2c(C(=O)N2CCOCC2)n1` [Compound 119], the IC50 in experiment [1] was over 10000 nM; in experiment [2], under 100 nM; in experiment [3], under 1000 nM; in experiment [4], under 1000 nM; in experiment [5] it was under 10000 nM.

`C[C@H](Nc1ccnc2ccnn12)c1cc2cccc(Cl)c2c(C(=O)N2CCOCC2)n1` [Compound 120]: the half-maximal inhibitory concentration (IC50) is under 10000 nM in experiment [1]; under 100 nM in experiment [2]; under 1000 nM in experiment [3]; under 100 nM in experiment [4]; under 10000 nM in experiment [5].

As to `C[C@H](Nc1ncnc2scnc12)c1cc2cccc(Cl)c2c(OCCN2CCCC2)n1` [Compound 121], the IC50 is under 1000 nM in experiment [1]; under 100 nM in experiment [2]; under 1000 nM in experiment [3]; under 100 nM in experiment [4]; under 1000 nM in experiment [5].

Take `CC(C)N1CCC(Oc2nc([C@H](C)Nc3ncnc4scnc34)cc3cccc(Cl)c23)CC1` [Compound 122]: the IC50 in experiment [1] is under 10000 nM; in experiment [2], under 100 nM; in experiment [3], under 10000 nM; in experiment [4], under 1000 nM; in experiment [5] it was under 10000 nM.

`C[C@H](Nc1ncnc2cccnc12)c1cc2cccc(Cl)c2c(C(=O)N2C3CCC2COC3)n1` [Compound 123]: the IC50 in experiment [1] was under 10000 nM; in experiment [2] it was under 100 nM; in experiment [3] it was under 1000 nM; in experiment [4] it was under 100 nM; in experiment [5], under 10000 nM.

As for `C[C@H](Nc1ncnc2scnc12)c1cc2cccc(Cl)c2c(C(=O)N2C3CCC2COC3)n1` [Compound 124], the IC50 in experiment [1] is under 1000 nM; in experiment [2], under 100 nM; in experiment [3], under 1000 nM; in experiment [4], under 100 nM; in experiment [5] it was under 10000 nM.

Values taken from patent publication US8901133B2, “Heterocyclic compounds and uses thereof” (Infinity Pharmaceuticals, Inc., priority 2010, dated 2014).
